Patent US20070015813A1, “Treatment of protein folding disorders” (QUEEN'S UNIVERSITY AT KINGSTON, priority 2005, published 2007)
One block for each compound: values may come before it.

Tests used:
Aβ1-40 [1] = molecular target: T1, Aβ1-40 (Homo sapiens, UniProt P05067); test: Kinetic Thioflavin T (ThT) aggregation assay of Aβ1-40; format: biochemical; details: 20 μM Aβ1-40, 4 μM ThT, pH 7.4, 37° C., kinetic ThT assay
T1 construct: Aβ^1-40 (AnaSpec, San Jose, Calif., lots 14212, 34862 and 34889); purchased AnaSpec, San Jose, Calif
Protocol: Aβ^1-40 (1.0 mg) was pre-treated in a 1.5 mL microfuge tube with 1,1,1,3,3,3-hexafluoroisopropanol (HFIP, 1 mL) and sonicated for 20 min. to disassemble any pre-formed Aβ aggregates. The HFIP was removed with a stream of argon and the Aβ dissolved in Tris base (5.8 mL, 20 mM, pH 10.5). The pH was adjusted to 7.4 with concentrated HCl and the solution filtered using a syringe filter (0.2 μm). This solution was used for circular dichroism studies or diluted with an equal volume of 8 μM Thioflavin T (ThT) in Tris-HCl (20 mM, pH 7.4, 300 mM NaCl) for the ThT aggregation assay.
(§1) Aliquots (200 μL) of Aβ^1-40, Aβ^1-42, tau441 or α-synuclein with ThT or ThS were added to wells of a black polystyrene 96-well plate, followed by 2 μL of a compound in DMSO (various concentrations), or DMSO alone (controls). For α-synuclein, sodium dodecyl sulfate solution (2.0 μL, 30 mM) was also added to each well to induce aggregation. Incubations were performed in triplicate and were taken to contain 20 μM Aβ^1-40 or Aβ^1-42, 6 μM tau441 or 4 μM α-synuclein. Plates were covered with clear polystyrene lids and incubated at 37° C. in a GENios microplate reader obtained from Tecan Group Limited, Mannedorf, Zurich. For Aβ^1-40, tau441 and α-synuclein, fluorescence readings (λex=450 nm, λem=480 nm) were taken every 15 min., after first shaking at high intensity for 15 sec. and allowing to settle for 10 sec. before each reading. For Aβ^1-42, readings were taken every 5 min.
(§2) The absorbance of each compound was measured under the conditions used during testing, though on ten times the scale (2 mL), to ensure no significant quenching interfered with the assay. This step was also used to identify whether compounds were completely soluble under testing conditions.
FIG. 1 depicts the inhibition of Aβ^1-40 aggregation, as measured by Thioflavin T (ThT) fluorescence, by directly-linked 3,3′-bis-indolyl compounds 0c-i (A), other bis-indoles (B), aza-indole-containing compounds (C), indole-phenols (D), indole-5-carboxylic acid-containing bi-aromatics (E), and naphthol-containing bi-aromatics (F). Aggregation conditions: 20 μM Aβ^1-40 incubated in covered black 96-well polystyrene microplates with 4 μM ThT, pH 7.4, Tris-HCl (20 mM), 150 mM NaCl, 1% DMSO. Compound concentrations are 200 μM (A,B, except where otherwise noted), 100 μM (E), 20 μM (F), or as indicated (C,D). Plates heated at 37° C. in Tecan Genios microplate reader. All incubations performed in triplicate. Prior to experiment, Aβ^1-40 pretreated with 1,1,1,3,3,3-hexafluoroisopropanol (HFIP). Fluorescence readings: fluorescence measured every 15 min. (λex=450 nm, λem=480 nm) after shaking for 15 sec. and pausing 10 sec. before taking measurement. Values are the mean of three replicates. Error bars, omitted for clarity in (B), represent standard deviation of the mean.

Aβ1-42 = molecular target: T2, Aβ1-42 (Homo sapiens, UniProt P05067); test: Kinetic Thioflavin T (ThT) aggregation assay of Aβ1-42; format: biochemical; details: 20 μM Aβ1-42, kinetic ThT assay
T2 construct: Aβ^1-42 (AnaSpec, lot 45685); purchased AnaSpec
Protocol: Aβ^1-42 (1.0 mg) was either pretreated with HFIP in the same manner as Aβ^1-40 or this step was omitted. After removing HFIP, when appropriate, Aβ^1-42 was dissolved in 1% NH3 (aq.) (200 μL) and sonicated for 1 min. The solution was diluted with Tris-HCl (5.7 mL, 20 mM, pH 7.4), the pH adjusted to 7.4 with concentrated HCl (aq.) and the solution filtered using a syringe filter (0.2 μm). Prior to use in the ThT aggregation assay, the solution was diluted with an equal volume of 8 μM Thioflavin T (ThT) in Tris-HCl (20 mM, pH 7.4, 300 mM NaCl).
as §1, §2
FIG. 7 depicts inhibition of Aβ^1-42 aggregation by various synthesized bi-aromatic compounds and positive controls morin (Ono K, Yoshiike Y, Takashima A, Hasegawa K, Naiki H, Yamada M. 2003. J Neurochem 87:172-81) and RS-0406 (Walsh D M, Townsend M, Podlisny M B, Shankar G M, Fadeeva J V, Agnaf O E, Hartley D M, Selkoe D J. 2005. J Neurosci 25:2455-62) in the kinetic ThT assay. Same conditions as for Aβ^1-40, FIG. 1. Compound concentrations were 100 μM in (A), 20 μM in (B), except for RS-0406, which was tested at 100 μM, and 20 μM in (C).

Aβ1-40 [2] = molecular target: T1, Aβ1-40; test: Circular dichroism studies of Aβ1-40; format: biochemical; details: 40 μM Aβ1-40, 200 μM compound, pH 7.4, 37° C.
Protocol: Aliquots (220 μL) of pretreated Aβ^1-40 (40 μM in 20 mM Tris-HCl, pH 7.4) were added directly to 1 mm quartz circular dichroism (CD) cells, followed by 2.2 μL compound (of varying concentration) in methanol or methanol alone (controls). Solutions were incubated at 37° C. for up to 6 days. CD scans were performed on a J-810 spectropolarimeter (obtained from Jasco Corporation, Tokyo, Japan) between 190 and 250 nm, with a resolution of 0.1 nm and bandwidth of 1 nm. Ten scans were obtained for each reading. Spectra had background CD of the buffer subtracted and were left unsmoothed. Readings were performed at 37° C.
FIG. 6 depicts circular dichroism (CD) of Aβ^1-40 alone (A) and in the presence of 0j (B) and morin (C). Conditions: 40 μM Aβ^1-40, 200 μM compound (B,C), pH 7.4, Tris-HCl (20 mM), 1% MeOH. Prior to experiment, Aβ^1-40 pretreated with 1,1,1,3,3,3-hexafluoroisopropanol (HFIP).

patients with dementia = details: one month, once daily dosing, ratings of behaviour and functional abilities; cited from earlier work
[3] = system: patients with advanced senile dementia; details: daily Trp administration (24 mg/kg); cited from earlier work
[4] = system: patients suffering from AD; details: ten patients, three months; cited from earlier work
[5] = system: patients with mild to moderate Alzheimer's disease (AD); test: Phase IV double-blind randomized placebo-controlled clinical trial of L-tryptophan (Trp); format: in vivo, human
Protocol: A phase IV clinical trial of L-tryptophan (Trp) was carried out to evaluate the amino acid's effect on cognitive abilities in patients with mild to moderate Alzheimer's disease (AD). An earlier trial has been performed which studied Trp administration in patients suffering from AD [Bentham, P W. International Clinical Psychopharmacology, 1990, 5: 261-72]. The present trial expects the possible binding of Trp to the HHQK region of Aβ [D Giulian et al. (1998). Journal of Biological Chemistry 273:29719-26] and subsequent disruption of Aβ plaque formation, whereas the earlier trial was based on neurotransmitter replacement therapy. By administering Trp, levels of its metabolite […], better known as serotonin, were expected to increase, thereby countering deficits of the neurotransmitter experienced by those suffering from AD [Siegel, G J; Agranoff, B W; Albers, R W; Molinoff, P B, Basic Neurochemistry. Fifth ed. 1994, New York: Raven Press, 1054 pp]. Also providing motivation for the trial may have been earlier accounts that Trp was seen to benefit elderly patients with mental disorders [Shaw, D M; Tidmarsh, S F; Karajgi, B M; Sweeney, E A; Williams, S; Elameer, M; Twining, C. British Journal of Psychiatry, 1981, 139: 580-2, Lehmann, J; Persson, S; Walinder, J; Wallin, L. Acta Psychiatrica Scandinavica, 1981, 64: 123-31].
Twelve patients were enrolled in the current clinical trial. Patients were administered 1 g Trp (n=8) or placebo (n=4) twice a day for six months, and their cognitive abilities were assessed, using standardized tests, at baseline, three months and six months. All enrollment and testing was carried out at the Kingston General Hospital, Kingston, Ontario, Canada, under the supervision of the principal investigator, D. F. Weaver, M.D., Ph.D (the protocol is attached as Appendix A). The primary endpoint of the double-blind trial was to determine whether patients receiving Trp outperformed the controls, either by experiencing an improvement in cognition or a reduction in deterioration in cognitive abilities relative to the placebo group.
Eligible participants were those who met the clinical criteria of probable Alzheimer's disease as described in the Diagnostic and Statistical Manual of Mental Disorders, fourth edition (DSM-IV) [Anonymous, Diagnostic and Statistical Manual of Mental Disorders, 4th Edition (DSM-IV). 1994, Washington, D.C.: American Psychiatric Association] and in the National Institute of Neurologic and Communicative Disorders and Stroke and the Alzheimer's Disease Related Disorders Association (NINCDS-ADRDA) [McKhann, G; Drachman, D; Folstein, M; Katzman, R; Price, D; Stadlan, E M. Neurology, 1984, 34: 939-44]. Inclusion criteria also included: mild to moderate severity of dementia, as reflected by a Mini-Mental State Examination (MMSE) [Folstein, M F; Folstein, S E; McHugh, P R. J Psychiatr Res, 1975, 12: 189-98] score of 14 to 26; minimum one-year duration of symptoms; minimum age of 50 years; living at home or in an institution provided they had caregivers capable of attending each clinic visit and ensuring the administration of medication; able to perform the psychometric tests required; reasonably good nutritional status; vital signs (blood pressure and heart rate in sitting and standing positions), urinalysis, physical examination, and neurological evaluation must yield results within normal limits or determined as not clinically significant by the study physician for the patient's age and sex.
This study was a 6-month, double-blind randomized trial in which eligible participants were randomly assigned to receive either Trp (1000 mg, twice daily) or an identical-appearing placebo. Recruiters were unaware of the assignment. […]

[6] = Trp 1 g twice a day (n = 8), 6 months, negative change indicates improvement
[7] = Trp 1 g twice a day (n = 8), 6 months, positive change indicates improvement
[8] = Trp (n = 8) vs. placebo (n = 4), 3 months
[9] = Trp (n = 8) vs. placebo (n = 4), 6 months

T1 sequence (P05067 672-711 limits assumed): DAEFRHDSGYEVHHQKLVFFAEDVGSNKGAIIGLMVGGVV
T2 sequence (P05067 672-713 limits assumed): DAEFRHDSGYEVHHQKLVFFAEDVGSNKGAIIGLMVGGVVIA

inhibition of Aβ1-40 aggregation, as measured by Thioflavin T (ThT) fluorescence (Aβ1-40 [1]): inhibition
inhibition of Aβ1-42 aggregation, as measured by ThT fluorescence (Aβ1-42): inhibiting aggregation
random coil (RC)→β-sheet transition of Aβ1-40 by circular dichroism (Aβ1-40 [2]): inhibited to a greater extent
SMILES: O=C(O)c1ccc2[nH]cc(-c3c[nH]c4ccc(O)cc34)c2c1 [0j, 3-(5-Hydroxy-indol-3-yl)-indole-5-carboxylic Acid]

SMILES: N[C@@H](Cc1c[nH]c2ccccc12)C(=O)O [Trp, L-tryptophan]
benefit in patients with dementia (patients with dementia): of no benefit
patients with “unequivocal improvement in blind global assessment” [3]: six of 29
correlation between the increase in Trp plasma levels and the increase in cognitive test scores [4]: statistically significant correlation
ADAS-Cog, mean (SE) change from baseline after 3 months ([5]; Trp 1 g twice a day (n = 8), 3 months, negative change indicates improvement): −0.8 (0.9)
MMSE, mean (SE) change from baseline after 3 months ([5]; Trp 1 g twice a day (n = 8), 3 months, positive change indicates improvement): 0.8 (0.4)
ADAS-Cog, mean (SE) change from baseline after 6 months [5, 6]: −2.8 (1.4)
FAQ, mean (SE) change from baseline after 6 months [5, 6]: 3.2 (2.0)
NPI, mean (SE) change from baseline after 6 months [5, 6]: 3 (3)
Clock-drawing, mean (SE) change from baseline after 6 months [5, 7]: 1.1 (0.4)
DAD, mean (SE) change from baseline after 6 months [5, 7]: 1.5 (1.8)
MMSE, mean (SE) change from baseline after 6 months [5, 7]: 1.8 (0.5)
ADCS-CGIC, mean (SE) score at 6 months ([5]; Trp 1 g twice a day (n = 8), score at 6 months, not change from baseline, lower score indicates improvement): 3.6 (0.3)
adverse events reported by patients ([5]; Trp 1 g twice a day, 6 months): No adverse events
ADAS-Cog, treatment difference (Trp vs. placebo) after 3 months [5, 8]: 1.3
MMSE, treatment difference (Trp vs. placebo) after 3 months [5, 8]: 2.0
ADAS-Cog, treatment difference (Trp vs. placebo) after 6 months [5, 9]: −6.3
ADCS-CGIC, treatment difference (Trp vs. placebo) at 6 months [5, 9]: 2.9
Clock-drawing, treatment difference (Trp vs. placebo) after 6 months [5, 9]: 2.9
DAD, treatment difference (Trp vs. placebo) after 6 months [5, 9]: 12.8
FAQ, treatment difference (Trp vs. placebo) after 6 months [5, 9]: −2.0
MMSE, treatment difference (Trp vs. placebo) after 6 months [5, 9]: 5.0
NPI, treatment difference (Trp vs. placebo) after 6 months [5, 9]: −19
patients depressed (Cornell Depression Index score of >5) after 6 months of treatment ([5]; Trp group (two patients), 6 months): 25%
sleep problems (score of >4 on the Pittsburgh Sleep Quality) ([5]; at baseline or at 6 months): No sleep problems
